Here are results for 85 compounds from a melting point compilation (Tetko et al.; mined from patent text by program, amines drawn as free bases though some values may be those of a salt).

By melting point is commonly meant the temperature, or range, at which the solid turns liquid. In turn, `Cc1cc(OCc2ccccc2)cc(C)c1NC(=O)CCl` had a melting point of 165 °C.
Next, `CC(C)OC(=O)N1CCC(c2nc3cc(-c4ccc(C(=O)O)cn4)ccc3o2)CC1`: 239 to 242 °C; `CC(C)(C)c1cc(CCc2ccccc2NC(=O)NC2CCN(Cc3ccc(F)c(F)c3)CC2)cc(C(C)(C)C)c1O`: 155 to 156 °C; `Nc1ccc(Oc2ccccc2C(=O)Oc2ccccc2)cc1`: 102 °C.
Next, `COc1cc(O)ccc1C1=NC2=CCC(=O)NC2=N1`: > 270 °C.
Take `CC(=O)C(=Cc1cccc([N+](=O)[O-])c1)C(C)=O`: the melting point fell in the range of 92 to 95 °C.
Next, `CS(=O)(=O)OCc1cc(-c2ccc3c(c2)CCO3)nn(Cc2ccc(Cl)cc2)c1=O`: 69 to 70 °C; `Cc1cc(CSCCNC(=C[N+](=O)[O-])NCCc2cccc(O)c2)sc1CN(C)C`: 114 to 115 °C; `COc1ccc(Nc2ccc(Nc3ncnc4cc(-c5ccccc5)sc34)cc2)cc1OC`: 160 to 161 °C.
Next, `CN(C)S(=O)(=O)c1cc([N+](=O)[O-])ccc1Cl`: 138 to 140 °C; `Cc1nc(Cl)c(C#N)c2c1CCCC2`: 98 °C.
As to `O=c1n(CC(O)(Cn2cncn2)c2ccc(F)cc2F)cnn1-c1ccc(OC(F)(F)F)cc1` (racemic), the melting point fell in the range of 128 to 130 °C.
`Cc1cc(C(=O)Nc2ccc(C(N)=O)cc2)on1`: the melting point is > 300 °C.
Next, `COc1ccccc1N1CCN(Cc2cnc(N)nc2N)CC1`: 195 to 196 °C; `O=C(CN1CCN(C(=O)Nc2ccc(C(F)(F)F)cc2)CC1)N1CCC2(CC1)Cn1cc([N+](=O)[O-])nc1O2`: 153 to 155 °C.
Next, `Cc1ccc(C(=O)Nc2ccccc2C(CCC(=O)O)=NO)cc1`: 165 to 168 °C; `CS(=O)(=O)c1ccc(-c2nc3cc(OC(=O)N4CCCCC4)ccc3s2)c(F)c1`: 173 to 178 °C.
The compound `Nc1ccc(N2CCN(CCCC3CCCC3)C2=O)cc1` displayed a melting point of 97 to 99 °C.
Next, `Cc1nn(-c2ccccn2)c2[nH]c3c(c(=O)c12)CCCC3`: 172 to 173 °C.
`Cc1c(C(=O)c2ccc(F)cc2)cccc1[N+](=O)[O-]` returned a melting point of 64 °C.
Next, `Fc1cc(C(Cl)(Cl)Cl)c(Cl)c(C(Cl)Cl)c1Cl`: 74 to 76 °C; `C=C(C(=O)c1cc(-c2cccs2)ccc1OC)c1ccc(C#N)cc1`: 86 to 88 °C; `CCCCOCC(O)COc1ccc(-c2nc(-c3ccc(OCC(O)COCCCC)cc3O)nc(-c3c(C)cc(C)cc3C)n2)c(O)c1` (stereo not given): 125 to 131 °C.
Next, `ON=C1c2ccccc2C2CC2c2ccccc21` (stereo not given): 201 °C; `Cn1cc(CS(C)=O)c(=O)c2ccc(Cl)cc21` (stereo not given): 180 to 181 °C; `[N-]=[N+]=NC1CC(n2cc(I)c(=O)[nH]c2=O)OC1CO` (stereo not given): 126 to 130 °C.
Next, `COC(=O)c1ccc(CNC(=O)C[C@H]2O[C@H](c3cccc(OC)c3OC)c3cc(Cl)ccc3N(CC(C)(C)CO)C2=O)cc1`: 110 to 112 °C; `COc1ccc(-c2c(C)ncc(C#N)c2Nc2ccc3[nH]ccc3c2C)cc1OC`: 202 to 203 °C; `Fc1ccc2c(c1)C(=C1SCCCS1)CCO2`: 47 to 49 °C.
Compound `CC1(C)OC(=O)Nc2ccc(-c3cc(C(F)(F)F)cc(C(F)(F)F)c3)cc21` had a melting point of 258 to 260 °C.
In the case of `CNS(=O)(=O)c1cc(C(=O)O)cc(N)c1Oc1ccccc1`, the melting point was 283 °C.
Next, `Cc1nc2c(O[C@@H]3c4ccccc4C[C@H]3O)cc(Cl)cn2c1C=O` (relative stereo): 220 to 222 °C; `Cc1cccc(-c2cccc(-c3nc(C)cc(Cl)n3)n2)c1`: 105 °C; `Cc1cc(NNC(=O)OC(C)(C)C)nnc1-c1cccc([N+](=O)[O-])c1`: 160 to 162 °C.
In turn, `Oc1cc2c(c(Cl)c1Cl)C(O)C(C1CCCC1)C2` (stereo not given) returned a melting point of 158 to 160 °C.
Next, `Cc1cccc(Nc2cc(Cl)nc(S(C)(=O)=O)n2)c1C`: 140 to 142 °C; `CCOC(=O)c1ncc2[nH]c3cccc(Oc4ccc([N+](=O)[O-])cc4)c3c2c1COC`: 231 to 232 °C; `CC(C)(C)C(=O)C(Br)Cc1ccc(Cl)cc1` (stereo not given): 48 to 50 °C.
Next, `CC(=O)Oc1c(C(C)(C)C)cc2c(c1C(C)(C)C)C=CS2(=O)=O`: 195 °C.
Next, `O=C1CCC(=O)c2ccccc2N1`: 168 to 170 °C; `COC(=O)Cc1sc(S)nc1C`: 139 to 140 °C.
`CC(=O)OCC1=NC(NC(=O)Nc2cccc(C)c2)C(=O)N(CC(=O)N2CCCCCCC2)c2c(C)cccc21` (stereo not given) gave a melting point of 112 to 114 °C.
Next, `COC(C)(OC)C(=O)CCCCCCOc1ccc(-c2ccccc2)cc1`: 48 °C; `Cc1nc(NC(=O)c2cnn3c(C(F)(F)F)cc(-c4ccc(Cl)cc4)nc23)sc1S(=O)(=O)NC(C)(C)CO`: 274 °C.
Next, `CC1=C(C(=O)OCCOC(C)C)C(c2cccc(Cl)c2Cl)C(c2nnco2)=C(C)N1` (stereo not given): 151 to 154 °C.
Next, `COc1ccc(CNc2ccc(C(=O)O)cc2)cc1`: 208 to 210 °C; `Cc1ccc(S(=O)(=O)OCC2COc3ccc4[nH]c(C(F)(F)F)nc4c3O2)cc1` (stereo not given): 114 to 116 °C; `NC(=O)c1c(N)cccc1OCCOc1ccccc1`: 127 to 130 °C.
In the case of `O=c1[nH]c2cccc(OCCN3CCc4ccccc4C3)c2[nH]c1=O`, the melting point was > 250 °C.
Next, `O=C(NC(=O)c1c(Cl)cccc1Cl)Nc1ccc(-c2ccc(Cl)cc2)cn1`: 230 to 233 °C; `CCOC(=O)N1CCN(c2c(-c3ccccc3)sc3ccccc23)CC1`: 115 to 116 °C; `CCOC(=O)c1cccn1CCN1CCC(=C2c3ccccc3CCn3ccnc32)CC1`: 158 °C.
Next, `CNC(=S)C1(c2cccc(C)n2)CCCO1` (stereo not given): 151 °C; `COc1ccc(N2CCN(c3ccc(OC)nc3-c3ccc(OCC(F)(F)F)cc3)CC2)cc1`: 104 to 107 °C; `CCn1nc(C#N)cc1-c1cn(C(C)C)c2cc(NS(C)(=O)=O)ccc12`: 144 to 145 °C.
In turn, `O=C(O)CCc1ccc2c(c1)OC[C@@H](Cc1ccccc1)[C@@H]2O` (relative stereo) had a melting point of 161 to 162 °C.
Next, `Cc1ccc(S(=O)(=O)NC(C)(C)CO)cc1NC(=O)c1cnn2c(C(F)F)cc(-c3ccc(C(F)(F)F)cc3)nc12`: 214 °C; `Cc1cccc(CCC(O)c2ccccc2)c1NC(=O)CC1c2ccccc2Oc2ccccc21` (stereo not given): 193 to 194 °C.
Next, `Cc1cc(C)c2[nH]c(=O)n(CCCN3CC=C(c4ccc(Cl)cc4)CC3)c(=O)c2c1`: 224 to 226 °C.
Next, `CCn1cc(C(=O)C(=O)O)c2ccc(-c3ccc(C(F)(F)F)cc3)cc21`: 247 to 248 °C; `Nc1c(F)c(N2CCNCC2)c(F)c2c1c(=O)c(C(=O)O)cn2C1CC1`: 257 to 259 °C; `O=C(Nc1ccc(-n2nc(C(F)(F)F)cc2C(F)(F)F)cc1)c1ccc(I)cc1`: 196 to 198 °C.
For `NS(=O)(=O)N(c1ccccc1)c1cccc(C(c2c(O)c3c(oc2=O)CCCCCC3)C2CC2)c1` (stereo not given), the melting point lay within 90 to 95 °C.
On to `CC(Oc1cc(Oc2ccc(C(F)(F)F)cc2Cl)ccc1[N+](=O)[O-])C(=O)NCC1CCCO1` (stereo not given), for which the melting point lay in the range of 102 to 104 °C.
Next, `Cc1ccc2c(cc(C(=O)O)n2CCCC#N)c1C`: 175 °C; `CCCCCCCCCCCCCCCC(=O)NCCCC`: 74 to 76 °C; `O=C1OC(Cc2ccccc2)CN1C(=O)c1ccccc1` (stereo not given): 109 to 110 °C.
Next, `CCCCCC(CC(=O)Nc1cc(C(=O)O)ccc1C(C)(C)C)c1ccc(CCCC)cc1OC` (stereo not given): 136 to 138 °C; `CC(=NNC(N)=O)c1ccc2nnn(Cc3ccc4ncccc4c3)c2n1`: 249 to 250 °C; `CCCCC(=O)Nc1ccc(C(=O)CCC(=O)O)cc1`: 153 to 155 °C.
Next, `Cc1ccc(-c2cc(C(F)(F)F)nn2-c2ccc(S(=O)(=O)NOC(C)C(=O)O)cc2)cc1` (single isomer, unassigned; (-)): 158 to 160 °C; `CN(C)C1(c2ccc(F)cc2)CCC(=O)CC1`: 128 to 133 °C.
Compound `CCCC1=C(CCC)C1(C(=O)Nc1ccc(Br)cc1C)C(=O)OC` gave a melting point of 52 to 54 °C.
In the case of `O=C1Nc2cc(CN3CCN(c4ccc(Cl)cc4)CC3)cnc2N2CCC[C@@H]12`, the melting point was in the range of 265 to 268 °C.
Next, `CNc1cccc(S(=O)(=O)c2ccc(N)cc2)c1`: 125 to 126 °C; `CC(=O)NC1CCC2=C(CC1)C(=O)C(=CC(=O)O)C=C2` (stereo not given): 240 to 243 °C; `CS(=O)(=O)Nc1ccc(C(=O)C2CCN(CCCOc3ccc([N+](=O)[O-])cc3)CC2)cc1`: 162 to 164 °C.
Next, `Cn1cccc1C(=O)NCc1cccc2c1C(=O)N(C1CCC(=O)NC1=O)C2=O` (stereo not given): > 260 °C.
Next, `COc1ccc(-c2nc(Sc3ccc(C(F)(F)F)cc3)[nH]c2-c2ccc(OC)cc2)cc1`: 179 to 181 °C; `O=C(O)c1cn(C2COC2)c2c(F)c(F)c(F)c(O)c2c1=O`: 242 to 244 °C.
As for `CC(C)(C)CC(C)(C)c1cc(N=Nc2cc(C(=O)O)ccc2Cl)c(O)c(C(C)(C)c2ccccc2)c1`, the melting point was 218 to 220 °C.
Next, `CN(CC1(c2ccccc2)CC(O)=CC(=O)O1)c1ccccc1` (stereo not given): 118 to 120 °C; `COC(=O)C1=C(C)NC(CO)=C(C(=O)OC)C1c1ccccc1C#N` (stereo not given): 177 to 178 °C.
`CN1CCN(c2cccc(-n3cnc4cc(C#N)ccc43)c2)CC1` came in with a melting point of 158 to 160 °C.
Consider `O=C(O)[C@H]1C[C@H](NC(=O)N2CCc3ccccc32)c2c(Cl)cc(Cl)cc2N1` (relative stereo), for which the melting point lay in the range of 251 to 252 °C.
